According to patent publication US9938238B2, “Anti-auxin compounds” (priority 2015, dated 2018):
Entries after “also recorded” stand apart in the source; their conditions may differ.

Legend:
Col-0 wt seedlings [1] = assay: Seedling triple response of ethylene-treated etiolated Col-0 wt seedlings; format: in vivo, Arabidopsis
Procedure: (§1) For screening for chemicals that reduce ethylene response, Arabidopsis ctr1-3 seeds were planted on a microtiter plate containing PNS media in the presence of individual chemicals (50 μM concentration of each) from the Microsource Spectrum Collection. Seedlings were grown in the dark for 4 d after which they were scored for manifestation of the ethylene responsive triple response. For all other growth experiments, seedlings were planted on PNS media supplemented with the relevant chemical (Deslauriers and Larsen, 2010). For conditions requiring pamoic acid, media was supplemented with Pamoic acid disodium salt (Sigma Life Science, St. Louis, Mo.). Measurement of ethylene production was conducted as previously described (Deslauriers and Larsen, 2010).
For Col-0 wt, seedlings were grown in either the presence or absence of 5 μM AgNO3, an inhibitor of ethylene perception, or 100 μL L^−1 ethylene, which is a concentration that results in maximal response in etiolated seedlings. […] It should be noted that the phenotype of PA-treated seedlings in the presence of saturating ethylene is strikingly similar to ethylene-treated wei8 and tart loss-of-function mutants, which are deficient in auxin biosynthesis (Stepanova et al., 2008).

ctr1-3 seedlings = assay: Seedling triple response of constitutive ethylene response mutant ctr1-3 (library screen and follow-up); format: in vivo, Arabidopsis
Procedure: as §1
A chemical library screen was performed in which etiolated seedlings of the constitutive ethylene response mutant, ctr1-3, were grown in air for 4 d in the presence of chemicals from the Microsource Spectrum Collection, a bioactive and natural compound library consisting of 2000 different compounds. ctr1-3 seedlings were scored for presentation of the ethylene regulated seedling triple response, consisting of severe hypocotyl and root shortening and exaggerated apical hook formation.

[2] = tested on: etiolated Col-0 wt seedlings; assay: Measurement of ethylene biosynthesis by gas chromatography; format: in vivo, Arabidopsis
Procedure: as §1

Col-0 wt seedlings [3] = assay: Root length dose response; format: in vivo, Arabidopsis
Procedure: as §1
Auxin is required for normal root growth since at physiological concentrations it promotes cell elongation.

Col-0 wt seedlings [4] = assay: Blockage of auxin dependent inhibition of root growth; format: in vivo, Arabidopsis
Procedure: For screening for chemicals that reduce ethylene response, Arabidopsis ctr1-3 seeds were planted on a microtiter plate containing PNS media in the presence of individual chemicals (50 μM concentration of each) from the Microsource Spectrum Collection. Seedlings were grown in the dark for 4 d after which they were scored for manifestation of the ethylene responsive triple response. For all other growth experiments, seedlings were planted on PNS media supplemented with the relevant chemical (Deslauriers and Larsen, 2010). For conditions requiring pamoic acid, media was supplemented with Pamoic acid disodium salt (Sigma Life Science, St. Louis, Mo.). Measurement of ethylene production was conducted as previously described (Deslauriers and Larsen, 2010). […]

Col-0 wt seedlings [5] = assay: Root gravitropism on vertical agar plates; format: in vivo, Arabidopsis
DR5::GUS = assay: GUS analysis of auxin responsive DR5::GUS reporter line; format: in vivo, Arabidopsis
Procedure: GUS analysis of DR5::GUS lines was performed as previously described (Ni et al., 2001).
Auxin responsiveness has also been assessed using the Arabidopsis DR5::GUS transgenic line in which several auxin response elements are fused upstream of the GUS reporter gene (Ni et al., 2001). Normally, treatment of DR5::GUS lines with exogenous auxin leads to increased GUS levels, which can be visualized through accumulation of blue color upon adding X-Gluc.

[6] = tested on: Col-0 wt, tir1-1, afb1-5, afb2-3, afb3-5, afb4-1 seedlings; assay: Hypocotyl and root elongation of auxin receptor loss-of-function mutants; format: in vivo, Arabidopsis; conditions: tir1-1, increasing range of Tolmetin
Text: Loss of proper auxin signaling as in the dominant shy2-2 mutant (Tian et al., 2003), which fails to have proper turnover of the IAA3 repressor of auxin response, leads to severe hypocotyl shortening for etiolated seedlings (Robles et al., 2012). […] It was of interest to determine what effect PA might have on hypocotyl and root elongation for loss-of-function mutants representing members of the Arabidopsis family of auxin receptors. It was predicted that mutants for receptors with a more prominent role in auxin dependent maintenance of organ elongation would be more severely affected by PA treatment due to the additive effect of the loss-of-function mutation with the effect of this anti-auxinic compound.
For analysis of the role of the various receptors in hypocotyl elongation, Col-0 wt and loss-of-function mutants for all of the auxin receptors (Si-Ammour et al., 2011) except AFB5 were grown for 4 d in the dark in the absence or presence of 30 μM PA on media supplemented with 5 μM AgNO3, which was included to eliminate the negative effect of ethylene on hypocotyl elongation.
A similar result was found for tir1-1 roots. For this experiment, seedlings were grown in the dark for 4 d in the absence or presence of 30 μM PA after which root length was measured. […] This was confirmed by analysis of growth of Col-0 wt and tir1-1 roots across a range of PA concentrations.

TIR1-IAA7 complex = target: T1, TIR1-IAA7 complex (Arabidopsis thaliana, UniProt Q570C0); assay: In vitro assembly of the TIR1-IAA7 complex in the presence of auxin; format: biochemical
T1 sequence (Q570C0 1-594): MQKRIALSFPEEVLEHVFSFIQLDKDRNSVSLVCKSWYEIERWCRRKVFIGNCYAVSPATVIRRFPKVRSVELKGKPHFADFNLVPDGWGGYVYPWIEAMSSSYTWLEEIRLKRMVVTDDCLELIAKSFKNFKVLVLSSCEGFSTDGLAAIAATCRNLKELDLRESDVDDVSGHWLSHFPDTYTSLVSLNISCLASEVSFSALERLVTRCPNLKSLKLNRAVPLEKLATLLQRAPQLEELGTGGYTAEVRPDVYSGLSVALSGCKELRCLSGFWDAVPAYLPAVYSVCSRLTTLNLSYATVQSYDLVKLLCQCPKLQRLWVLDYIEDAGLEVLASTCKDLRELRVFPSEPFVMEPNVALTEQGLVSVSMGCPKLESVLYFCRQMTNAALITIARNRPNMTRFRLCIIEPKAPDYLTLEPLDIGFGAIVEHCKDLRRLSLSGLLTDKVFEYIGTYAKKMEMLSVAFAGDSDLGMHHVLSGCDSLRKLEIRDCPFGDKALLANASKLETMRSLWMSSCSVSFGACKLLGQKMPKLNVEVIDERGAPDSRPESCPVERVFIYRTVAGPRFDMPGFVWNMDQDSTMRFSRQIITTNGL
Text: It should be noted that based on our growth analysis with various loss-of-function mutants for auxin receptors, it is likely that one or more of the other receptors are affected to a greater extent than TIR1 by each of these chemicals.

[7] = etiolated ctr1-3 in air, 4 d, 50 μM of each chemical
[8] = 5 days in the light, 50 micromolar Tolmetin (FIG. 7)

SMILES: Cc1ccc(C(=O)c2ccc(CC(=O)O)n2C)cc1 [Tolmetin]
- seedling length independent of ethylene (Col-0 wt seedlings [1]; Col-0 wt with 5 μM AgNO3, 4 d dark, 10 μM PA or Tolmetin up to 30 μM): negative effect was not seen
- manifestation of the ethylene dependent seedling triple response (loss of apical hook formation) (Col-0 wt seedlings [1]; Tolmetin 20-100 micromolar, Col-0 wt treated with saturating ethylene (FIG. 1)): partially blocks
- apical hook formation (Col-0 wt seedlings [1]; etiolated Col-0 wt, 100 μL L−1 (saturating) ethylene, 4 d dark, 10 μM PA or Tolmetin up to 30 μM): prevent apical hook formation; also recorded: nearly complete loss of apical hook formation
- root length / organ specificity of effect in ethylene treated seedlings (Col-0 wt seedlings [1]; etiolated Col-0 wt, saturating ethylene, 4 d dark, 10 μM PA or Tolmetin up to 30 μM): specific to hypocotyls
- ethylene-dependent root growth inhibition (ctr1-3 seedlings; ctr1-3, 10 μM PA or 30 micromolar Tolmetin): did not prevent the severe root growth inhibition; also recorded: does not affect ethylene-dependent root growth inhibition
- root growth of light grown ctr1-3 (ctr1-3 seedlings; ctr1-3 grown in the light, increasing concentrations of Tolmetin (FIG. 3)): No positive effect on root growth was observed
- apical hook formation (ctr1-3 seedlings; dark grown ctr1-3, 10 μM PA or 30 μM Tolmetin): prevent apical hook formation; also recorded: fully eliminated apical hook formation; also recorded: nearly complete loss of apical hook formation
- apical hook formation in chemical library screen (ctr1-3 seedlings; [7]): blocked apical hook formation
- root length in chemical library screen (ctr1-3 seedlings; [7]): measurably longer roots
- ethylene biosynthesis ([2]; 10 μM PA or 30 μM Tolmetin, 96 h, ethylene generated in the last 18 h): no measurable effect on ethylene biosynthesis
- ethylene biosynthesis ([2]; 50 micromolar Tolmetin, 4 days in the dark (FIG. 4)): does not reduce ethylene biosynthesis
- root length at increasing concentrations (Col-0 wt seedlings [3]; Col-0 wt, 7 d, increasing concentrations, versus untreated control roots): severe inhibition of root length
- root growth at low concentrations (Col-0 wt seedlings [3]; Col-0 wt, 7 d, low concentrations): stimulatory effect
- root length (Col-0 wt seedlings [3]; light, increasing concentrations of Tolmetin, 5 days (FIG. 5)): inhibitory to root growth at high concentrations
- inhibitory effect of Tolmetin on root length on addition of IAA (Col-0 wt seedlings [4]; 5 days, 50 micromolar Tolmetin plus 300 nM IAA (FIG. 6)): almost completely overcome
- root length, Tolmetin alone (Col-0 wt seedlings [4]; 5 days, 50 micromolar Tolmetin, 0 nM IAA (FIG. 6)): significant root growth inhibition
- root length, anti-auxin alone (Col-0 wt seedlings [4]; light, 7 d, 30 μM PA or 50 μM Tolmetin alone versus untreated roots): significantly inhibited
- inhibitory effects of exogenous auxin on root length (Col-0 wt seedlings [4]; light, 7 d, 30 μM PA with 150 nM NAA, 50 μM Tolmetin with 300 nM IAA): greatly reduced the inhibitory effects of exogenous auxin
- direction of root growth (gravitropism) (Col-0 wt seedlings [5]; 4 d, vertical agar plates, 30 μM PA or 50 μM Tolmetin): grew in a random manner that was independent of gravity
- direction of root growth (gravitropism) (Col-0 wt seedlings [5]; [8]): agravitropic root growth
- root hairs (Col-0 wt seedlings [5]; [8]): completely lacked root hairs
- dark color (GUS) in the absence of exogenous auxin (DR5::GUS; 0 versus 100 micromolar Tolmetin, no exogenous auxin (FIG. 8)): comparable level of dark color
- staining / auxin dependent lateral root formation (DR5::GUS; 100 μM Tolmetin, 750 nM IAA (FIG. 8)): prevented staining in the area of lateral root development; also recorded: completely blocks auxin dependent lateral root formation
- auxin dependent accumulation of GUS in root tips (DR5::GUS; 100 μM Tolmetin, exposure to IAA): blocked auxin dependent accumulation of GUS in root tips
- root growth sensitivity of tir1-1 [6]: hypersensitive
- blockage of assembly of the TIR1-IAA7 complex (TIR1-IAA7 complex): not been possible to demonstrate
